Here are results for twelve compounds from ChEMBL document CHEMBL1201862, “PubChem BioAssay data set” (2004).

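Interpolation was linear, between the two tested concentrations surrounding the appropriate level; five concentrations were tested over 48 hours in 96-well plates. GI50 is the concentration that inhibits growth by half.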 Active and inactive are the calls of the source. Cut-off read from the data, not from the text of the source: active = GI50 up to about 1.1 µM and inactive = higher. Where only a bound is given, the exact number is not on record here.

Among the test systems are A498; A549; HCT-15; Hs-578T; IGROV-1; LOX IMVI; MDA-MB-231; OVCAR-4; OVCAR-8; RPMI-8226; RXF 393; SF-268; SK-OV-3; SW-620; T47D; UACC-62; CCRF-CEM; UO-31.
Common to all, as to assay: inhibition of tumour cell growth, NCI panel, 48 h

With `Cc1cc(C)nc(NC(=O)COc2ccc(Cl)cc2)c1`, the GI50 in the experiment with A498 was > 100 µM (inactive); with A549, > 100 µM (inactive); in the experiment on HCT-15, above 100 µM; in the experiment with Hs-578T, > 100 µM (inactive); in the experiment with IGROV-1, 75.3 µM (inactive); in the experiment with LOX IMVI, > 100 µM (inactive). The GI50 with MDA-MB-231 is > 100 µM (inactive); in the experiment on OVCAR-4, > 100 µM (inactive); with OVCAR-8 it was > 100 µM (inactive); in the experiment with RPMI-8226, 74.5 µM (inactive); in the experiment on RXF 393, 71.8 µM (inactive); in the experiment on SF-268, > 100 µM (inactive). In addition, the GI50 with SK-OV-3 is > 100 µM (inactive); in the experiment on SW-620, > 100 µM (inactive); in the experiment with T47D, 48.9 µM (inactive); with UACC-62, > 100 µM (inactive).
With `COc1cc(C(c2cccc3ccccc23)N2C(=O)CCC2C(=O)O)cc(OC)c1OC` (centres undefined), the GI50 was > 100 µM (inactive) with A498; > 100 µM (inactive) in the experiment on A549; > 100 µM (inactive) in the experiment on CCRF-CEM; above 100 µM in the experiment with HCT-15; > 100 µM (inactive) in the experiment with Hs-578T; > 100 µM (inactive) in the experiment on IGROV-1. Also, the GI50 with MDA-MB-231, in the experiment with OVCAR-4, in the experiment on OVCAR-8, in the experiment with RPMI-8226, in the experiment with RXF 393 and in the experiment with SF-268 was > 100 µM (inactive) throughout. Also, the GI50 with SK-OV-3, with SW-620, in the experiment on T47D, with UACC-62 and in the experiment on UO-31 was > 100 µM (inactive) in each case.
With `C=CC(C)(C)C(=C)C(=O)N(C)c1ccccc1I`, the GI50 in the experiment with A498 was > 100 µM (inactive); with A549, > 100 µM (inactive); with CCRF-CEM, > 100 µM (inactive); in the experiment on HCT-15, above 100 µM; in the experiment with Hs-578T it was 57.9 µM (inactive); in the experiment with LOX IMVI, > 100 µM (inactive). Besides, the GI50 in the experiment with MDA-MB-231 was > 100 µM (inactive); with OVCAR-4 it was 48.3 µM (inactive); with OVCAR-8 it was > 100 µM (inactive); in the experiment with RPMI-8226, > 100 µM (inactive); in the experiment with RXF 393, > 100 µM (inactive); in the experiment with SF-268, > 100 µM (inactive). Further, the GI50 with SK-OV-3, with SW-620, in the experiment with T47D, with UACC-62 and in the experiment on UO-31 was > 100 µM (inactive) throughout.
`COc1ccc(C2OC2C(=O)C23CC4CC(CC(C4)C2)C3)cc1` (centres undefined): the GI50 in the experiment with A498 is > 100 µM (inactive); in the experiment on A549 it was 45.6 µM (inactive); in the experiment with CCRF-CEM, 60.7 µM (inactive); with HCT-15, 41.4 µM; in the experiment on Hs-578T, 13.6 µM (inactive); in the experiment on IGROV-1, 71.1 µM (inactive). Moreover, the GI50 is 19.1 µM (inactive) with LOX IMVI; 33 µM (inactive) in the experiment on MDA-MB-231; > 100 µM (inactive) in the experiment with OVCAR-4; 38.3 µM (inactive) in the experiment with OVCAR-8; 25.2 µM (inactive) with RPMI-8226; 37.6 µM (inactive) in the experiment on RXF 393. In addition, the GI50 with SF-268 is 54.6 µM (inactive); with SW-620, > 100 µM (inactive); with T47D, 14.4 µM (inactive); with UACC-62 it was 10.4 µM (inactive); in the experiment with UO-31, > 100 µM (inactive).
Turning to `CNC1(C(=O)O)CC1`, the GI50 was > 100 µM (inactive) in the experiment on A498; > 100 µM (inactive) with A549; > 100 µM (inactive) with CCRF-CEM; above 100 µM with HCT-15; > 100 µM (inactive) in the experiment on Hs-578T; > 100 µM (inactive) in the experiment on IGROV-1. For the same compound, the GI50 in the experiment on LOX IMVI, in the experiment with MDA-MB-231, in the experiment on OVCAR-4, in the experiment with OVCAR-8, with RPMI-8226 and in the experiment with RXF 393 was > 100 µM (inactive) each time. For the same compound, the GI50 is > 100 µM (inactive) in the experiment with SF-268, > 100 µM (inactive) in the experiment on SW-620, 87.5 µM (inactive) in the experiment on T47D and 69.2 µM (inactive) with UACC-62.
Take `C[n+]1c2ccccc2c(N=[N+]=[N-])c2ccccc21`: the GI50 in the experiment on A498 was 6.3 µM (inactive); with A549, 6.44 µM (inactive); in the experiment on CCRF-CEM, 3.33 µM (inactive); in the experiment on HCT-15, 5.66 µM; in the experiment on Hs-578T, > 10 µM (inactive); in the experiment with IGROV-1, 7.03 µM (inactive). In addition, the GI50 in the experiment on LOX IMVI was 2.94 µM (inactive); with MDA-MB-231, 8.63 µM (inactive); with OVCAR-4, 4.26 µM (inactive); in the experiment with OVCAR-8 it was 6.46 µM (inactive); in the experiment on RPMI-8226 it was 5.08 µM (inactive); in the experiment with RXF 393, > 10 µM (inactive). Besides, the GI50 is > 10 µM (inactive) with SF-268; > 10 µM (inactive) in the experiment with SK-OV-3; 6.28 µM (inactive) in the experiment on SW-620; > 10 µM (inactive) in the experiment with T47D; 7.73 µM (inactive) with UACC-62.
On to `CCC1=C(c2ccc(OC)cc2)CC[C@@]2(CCNC2=O)[C@@H]1C`, for which the GI50 is > 100 µM (inactive) with A498; > 100 µM (inactive) with A549; 57.7 µM (inactive) with CCRF-CEM; above 100 µM with HCT-15; > 52.2 µM (inactive) in the experiment with Hs-578T; > 100 µM (inactive) with IGROV-1. Also, the GI50 in the experiment on LOX IMVI was > 75 µM (inactive); in the experiment on MDA-MB-231 it was > 100 µM (inactive); in the experiment on OVCAR-4 it was > 100 µM (inactive); in the experiment with OVCAR-8, > 100 µM (inactive); with RPMI-8226 it was > 46.1 µM (inactive); in the experiment on SF-268 it was > 100 µM (inactive). In addition, the GI50 in the experiment on SK-OV-3 was > 100 µM (inactive); with SW-620, > 100 µM (inactive); in the experiment with T47D it was > 50.7 µM (inactive); in the experiment with UACC-62, > 100 µM (inactive); with UO-31, > 96.2 µM (inactive).
As for `COc1ccc(CCCCl)c(C2=NCCc3ccccc32)c1`, the GI50 in the experiment on A498 is > 100 µM (inactive); in the experiment on A549, 44.2 µM (inactive); in the experiment with CCRF-CEM it was 53.6 µM (inactive); in the experiment on HCT-15, above 100 µM; in the experiment on Hs-578T, 20.6 µM (inactive); with IGROV-1 it was 24.8 µM (inactive). Besides, the GI50 with MDA-MB-231 was 25.1 µM (inactive); in the experiment with OVCAR-4 it was 45.1 µM (inactive); in the experiment with OVCAR-8, 35.4 µM (inactive); in the experiment with RPMI-8226 it was 2.99 µM (inactive); in the experiment with RXF 393, 56.9 µM (inactive); in the experiment with SF-268 it was 27.5 µM (inactive). Moreover, the GI50 is > 100 µM (inactive) with SK-OV-3; 70.8 µM (inactive) in the experiment with SW-620; 32.9 µM (inactive) in the experiment on T47D; 84.5 µM (inactive) in the experiment on UACC-62; 66.5 µM (inactive) in the experiment on UO-31.
For the compound `O=C1CSC2(CC(/C=C/c3ccccc3O)=NN2c2cccc(S(=O)(=O)O)c2)N1c1nc2ccccc2s1` (centres undefined), the GI50 was 42.9 µM (inactive) with A498; 50.4 µM (inactive) in the experiment with A549; 14.6 µM (inactive) in the experiment with CCRF-CEM; 20 µM in the experiment on HCT-15; 47.3 µM (inactive) with Hs-578T; 23.3 µM (inactive) with IGROV-1. Moreover, the GI50 is 17.3 µM (inactive) with LOX IMVI; 30.1 µM (inactive) with MDA-MB-231; 22 µM (inactive) in the experiment with OVCAR-4; 17.9 µM (inactive) with OVCAR-8; 16 µM (inactive) in the experiment with RPMI-8226; 54.6 µM (inactive) in the experiment with RXF 393. The GI50 is 45 µM (inactive) with SF-268; 37.3 µM (inactive) with SW-620; 19.6 µM (inactive) in the experiment on T47D; 29.4 µM (inactive) with UACC-62; 28.7 µM (inactive) in the experiment on UO-31.
Take `CC(=O)OC1C[C@@H](C)C2(C[C@H](O)c3ccoc3)C(=O)OC[C@]13C2CCC(O)C31CO1` (some centres undefined): the GI50 was > 100 µM (inactive) in the experiment on A498; > 100 µM (inactive) with A549; > 100 µM (inactive) in the experiment on CCRF-CEM; above 100 µM in the experiment on HCT-15; > 100 µM (inactive) in the experiment on Hs-578T; > 100 µM (inactive) with IGROV-1. Further, the GI50 in the experiment on LOX IMVI, with MDA-MB-231, in the experiment with OVCAR-4, in the experiment on OVCAR-8, in the experiment with RPMI-8226 and in the experiment with RXF 393 was > 100 µM (inactive) throughout. Further, the GI50 in the experiment with SF-268 was > 100 µM (inactive); in the experiment with T47D, 1.51 µM (inactive); in the experiment with UACC-62 it was > 100 µM (inactive); in the experiment with UO-31, > 100 µM (inactive).
On to `CC(C)(C)NC(=O)C12C3C4C1C1C2C3C41C(=O)NC(C)(C)C` (centres undefined), for which the GI50 is > 100 µM (inactive) in the experiment with A498; > 100 µM (inactive) in the experiment with A549; 26.4 µM (inactive) in the experiment with CCRF-CEM; above 100 µM in the experiment with HCT-15; 32.8 µM (inactive) in the experiment on Hs-578T; > 100 µM (inactive) in the experiment on IGROV-1. Besides, the GI50 with LOX IMVI is > 100 µM (inactive); with MDA-MB-231, > 100 µM (inactive); with OVCAR-4, > 100 µM (inactive); with OVCAR-8, > 100 µM (inactive); in the experiment with RXF 393, 40.8 µM (inactive); in the experiment with SF-268, > 100 µM (inactive). The GI50 in the experiment with SW-620, with T47D, with UACC-62 and with UO-31 was > 100 µM (inactive) throughout.
Turning to `CN(C)Cc1cc(C(=O)/C=C/c2c(Cl)cccc2Cl)cc(CN(C)C)c1O`, the GI50 in the experiment on A498 is 9.27 µM (inactive); in the experiment on A549 it was 11.5 µM (inactive); with CCRF-CEM it was 3.74 µM (inactive); with HCT-15, 10.8 µM; in the experiment on Hs-578T it was 14 µM (inactive); in the experiment with IGROV-1 it was 7.83 µM (inactive). For the same compound, the GI50 was 1.77 µM (inactive) in the experiment on LOX IMVI; 4.61 µM (inactive) with MDA-MB-231; 8.55 µM (inactive) in the experiment with OVCAR-4; 3.55 µM (inactive) in the experiment on OVCAR-8; 4.78 µM (inactive) in the experiment with RPMI-8226; 5.7 µM (inactive) in the experiment on RXF 393. Also, the GI50 in the experiment with SF-268 was 11.9 µM (inactive); in the experiment with SW-620 it was 4.12 µM (inactive); in the experiment on T47D, 16.4 µM (inactive); in the experiment with UO-31, 2.79 µM (inactive).
